Experimental findings from patent US20240116892A1, “HETEROCYCLIC AMIDE AND UREA COMPOUNDS AS JAK2 INHIBITORS” (Ajax Therapeutics, Inc., priority 2022, published 2024) are described below.

A value given as a limit tells only on which side of the number the result lay.

Broadly, the Kd is the free concentration of one partner at which half of the binding sites on the other are occupied at equilibrium, for simple one-to-one binding.

Sequence of JAK2 (JH1 domain-catalytic, Y1007F, Y1008F) kinase (O60674 849-1124 Y1007F/Y1008F): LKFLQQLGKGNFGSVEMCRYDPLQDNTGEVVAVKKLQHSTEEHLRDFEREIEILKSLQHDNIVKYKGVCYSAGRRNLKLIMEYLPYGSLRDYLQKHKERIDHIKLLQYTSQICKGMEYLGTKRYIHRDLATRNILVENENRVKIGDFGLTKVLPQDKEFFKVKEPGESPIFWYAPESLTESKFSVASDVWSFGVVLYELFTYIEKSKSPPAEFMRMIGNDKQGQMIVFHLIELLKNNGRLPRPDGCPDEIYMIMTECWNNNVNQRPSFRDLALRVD

The test addresses JAK2 (JH1 domain-catalytic, Y1007F, Y1008F) kinase (Homo sapiens (Human), UniProt O60674, Y1007F/Y1008F). The experiment in a line: JAK2 JH1 Domain Binding Assay. Conditions: qPCR readout. The essentials:
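JH1 catalytic domain (Y1007F/Y1008F) expressed as NFkB DNA-binding-domain fusion in HEK293 cells, DNA-tagged. Competition with immobilized biotinylated ligand on streptavidin beads, 1 h at RT in PBS/Tween/BSA/DTT; bound kinase eluted with free ligand and quantified by qPCR.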
(In general: In qPCR the cycle at which signal appears reflects the starting amount.)
`COCc1cc2nc(N3CC[C@H](N(C)C(=O)Nc4cc(C(F)(F)F)cn(C)c4=O)[C@@H](OC)C3)cnc2[nH]1` [Example I-113-a, 1-((3S,4S)-3-methoxy-1-(6-(methoxymethyl)-5H-pyrrolo[2,3-b]pyrazin-2-yl)piperidin-4-yl)-1-methyl-3-(1-methyl-2-oxo-5-(trifluoromethyl)-1,2-dihydropyridin-3-yl)urea] had a Kd of 50 to 1000 nM. To `[2H]C1([2H])C[C@@H](N(C)C(=O)Nc2cc(C(F)(F)F)cn(C)c2=O)[C@H](OC)C([2H])([2H])N1c1cnc2[nH]ncc2c1` [Example I-153-a, 1-((3R,4R)-3-methoxy-1-(1H-pyrazolo[3,4-b]pyridin-5-yl)piperidin-4-yl-2,2,6,6-d4)-1-methyl-3-(1-methyl-2-oxo-5-(trifluoromethyl)-1,2-dihydropyridin-3-yl)urea] belongs less than 10 nM; to `CO[C@@H]1CN(c2cnc3[nH]cc(C)c3n2)CC[C@H]1N(C)C(=O)Nc1cc(C(F)(F)F)cn(C)c1=O` [Example I-118-a, 1-((3R,4R)-3-methoxy-1-(7-methyl-5H-pyrrolo[2,3-b]pyrazin-2-yl)piperidin-4-yl)-1-methyl-3-(1-methyl-2-oxo-5-(trifluoromethyl)-1,2-dihydropyridin-3-yl)urea], 10 to 50 nM. `Cn1cc(C(F)(F)F)cc(NC(=O)N2CC=CC23CCN(c2cnc4[nH]ncc4c2)CC3)c1=O` [Example I-81, N-(1-methyl-2-oxo-5-(trifluoromethyl)-1,2-dihydropyridin-3-yl)-8-(1H-pyrazolo[3,4-b]pyridin-5-yl)-1,8-diazaspiro[4.5]dec-3-ene-1-carboxamide] came in with a Kd of 10 to 50 nM.

As for `COc1n[nH]c2ncc(N3CC[C@H](N(C)C(=O)Nc4cc(C(F)(F)F)cn(C)c4=O)[C@H](C)C3)cc12` [Example I-131-a, 1-((3R,4S)-1-(3-methoxy-1H-pyrazolo[3,4-b]pyridin-5-yl)-3-methylpiperidin-4-yl)-1-methyl-3-(1-methyl-2-oxo-5-(trifluoromethyl)-1,2-dihydropyridin-3-yl)urea], the Kd is less than 10 nM.

Consider `CN(C(=O)Nc1cc(C(F)(F)F)cn(C)c1=O)C1CC2(C1)CN(c1cnc3[nH]ncc3n1)C2` [Example I-72, 1-(2-(1H-pyrazolo[3,4-b]pyrazin-5-yl)-2-azaspiro[3.3]heptan-6-yl)-1-methyl-3-(1-methyl-2-oxo-5-(trifluoromethyl)-1,2-dihydropyridin-3-yl)urea], for which the Kd is less than 10 nM. As for `CN(C(=O)Nc1cc(C(F)(F)F)cn(C)c1=O)[C@H]1CCN(c2cnc3[nH]nc(OC4COC4)c3c2)C[C@H]1F` [Example I-101-b, 1-((3R,4S)-3-fluoro-1-(3-(oxetan-3-yloxy)-1H-pyrazolo[3,4-b]pyridin-5-yl)piperidin-4-yl)-1-methyl-3-(1-methyl-2-oxo-5-(trifluoromethyl)-1,2-dihydropyridin-3-yl)urea], the dissociation constant (Kd) was in the range of 1000 to 5000 nM. Turning to `Cc1n[nH]c2ncc(N3CCC(N(C)C(=O)Nc4cc(C(F)(F)F)cn(C)c4=O)C(F)(F)C3)cc12` (single isomer, unassigned) [Example I-36-a, (R)- or (S)-1-(3,3-difluoro-1-(3-methyl-1H-pyrazolo[3,4-b]pyridin-5-yl)piperidin-4-yl)-1-methyl-3-(1-methyl-2-oxo-5-(trifluoromethyl)-1,2-dihydropyridin-3-yl)urea], the Kd is less than 10 nM.

Take `COc1c[nH]c2ncc(N3CC[C@@H](N(C)C(=O)Nc4cc(C(F)(F)F)cn(C)c4=O)[C@@H](F)C3)nc12` [Example I-152, 1-((3S,4R)-3-fluoro-1-(7-methoxy-5H-pyrrolo[2,3-b]pyrazin-2-yl)piperidin-4-yl)-1-methyl-3-(1-methyl-2-oxo-5-(trifluoromethyl)-1,2-dihydropyridin-3-yl)urea]: the Kd was less than 10 nM. As for `COc1c[nH]c2ncc(N3CC[C@H](N(C)C(=O)Nc4cc(C(F)(F)F)cn(C)c4=O)[C@@H](F)C3)nc12` [Example I-149, 1-((3S,4S)-3-fluoro-1-(7-methoxy-5H-pyrrolo[2,3-b]pyrazin-2-yl)piperidin-4-yl)-1-methyl-3-(1-methyl-2-oxo-5-(trifluoromethyl)-1,2-dihydropyridin-3-yl)urea], the Kd was less than 10 nM. The compound `CO[C@H]1CN(c2cnc3[nH]cc(C)c3n2)CC[C@@H]1N(C)C(=O)Nc1cc(C(F)(F)F)cn(C)c1=O` [Example I-118-b, 1-((3S,4S)-3-methoxy-1-(7-methyl-5H-pyrrolo[2,3-b]pyrazin-2-yl)piperidin-4-yl)-1-methyl-3-(1-methyl-2-oxo-5-(trifluoromethyl)-1,2-dihydropyridin-3-yl)urea] came in with a Kd of 50 to 1000 nM. In the case of `CC(=O)Nc1cnc(N2CCC(CC(=O)Nc3cc(C(F)(F)F)cn(C)c3=O)CC2)cn1` [Example I-3, 2-(1-(5-acetamidopyrazin-2-yl)piperidin-4-yl)-N-(1-methyl-2-oxo-5-(trifluoromethyl)-1,2-dihydropyridin-3-yl)acetamide], the Kd was 50 to 1000 nM.

The compound `CN(C(=O)Nc1cc(C(F)(F)F)cn(C)c1=O)C1CCN(c2cnc3[nH]ccc3n2)CC1(C)C` (single isomer, unassigned) [Example I-49-b, (S)- or (R)-1-(3,3-dimethyl-1-(5H-pyrrolo[2,3-b]pyrazin-2-yl)piperidin-4-yl)-1-methyl-3-(1-methyl-2-oxo-5-(trifluoromethyl)-1,2-dihydropyridin-3-yl)urea] returned a Kd of less than 10 nM. Under `CN(C(=O)Nc1cc(C(F)(F)F)cn(C)c1=O)[C@@H]1CCN(c2cnc3[nH]cc(N4CCOCC4)c3n2)CC1(F)F` (single isomer, unassigned) [Example I-155-a] stands 10 to 50 nM. Under `CN(C(=O)Nc1cc(C(F)(F)F)cn(C)c1=O)C12CC(c3ccc(NC(=O)C4CC4)nc3)(C1)C2` [Example I-179, N-(5-(3-(1-methyl-3-(1-methyl-2-oxo-5-(trifluoromethyl)-1,2-dihydropyridin-3-yl)ureido)bicyclo[1.1.1]pentan-1-yl)pyridin-2-yl)cyclopropanecarboxamnide] stands 10 to 50 nM. Under `COCCOc1n[nH]c2ncc(N3CC[C@@H](N(C)C(=O)Nc4cc(C(F)(F)F)cn(C)c4=O)C[C@H]3C)cc12` [Example I-132-b, 1-((2R,4R)-1-(3-(2-methoxyethoxy)-1H-pyrazolo[3,4-b]pyridin-5-yl)-2-methylpiperidin-4-yl)-1-methyl-3-(1-methyl-2-oxo-5-(trifluoromethyl)-1,2-dihydropyridin-3-yl)urea] stands 10 to 50 nM; under `CN(C(=O)Nc1cc(C(F)(F)F)cn(C)c1=O)C1CC2(C1)CN(c1cnc3[nH]ncc3c1)C2` [Example I-57, 1-(2-(1H-pyrazolo[3,4-b]pyridin-5-yl)-2-azaspiro[3.3]heptan-6-yl)-1-methyl-3-(1-methyl-2-oxo-5-(trifluoromethyl)-1,2-dihydropyridin-3-yl)urea], less than 10 nM; under `C[C@H]1C[C@@H](N(C)C(=O)Nc2cc(C(F)(F)F)cn(C)c2=O)CCN1c1cnc2[nH]ncc2c1` [Example I-105-a, 1-methyl-1-((2S,4S)-2-methyl-1-(1H-pyrazolo[3,4-b]pyridin-5-yl)piperidin-4-yl)-3-(1-methyl-2-oxo-5-(trifluoromethyl)-1,2-dihydropyridin-3-yl)urea], less than 10 nM. Take `CN(C(=O)Nc1cc(C(F)(F)F)cn(C)c1=O)C1CCN(c2cnn3cc(O[C@@H]4CC[C@H]4O)ncc23)CC1` [Example I-129-a, 1-(1-(6-((1R,2R)-2-hydroxycyclobutoxy)pyrazolo[1,5-a]pyrazin-3-yl)piperidin-4-yl)-1-methyl-3-(1-methyl-2-oxo-5-(trifluoromethyl)-1,2-dihydropyridin-3-yl)urea]: the Kd was less than 10 nM.

`CN(C(=O)Nc1cc(N2CCC(O)CC2)cc(C(F)(F)F)c1)C1CCN(c2cnccn2)CC1` [Example I-9, 3-(3-(4-hydroxypiperidin-1-yl)-5-(trifluoromethyl)phenyl)-1-methyl-1-(1-(pyrazin-2-yl)piperidin-4-yl)urea] registered a dissociation constant (Kd) of 1000 to 5000 nM. To `CN(C(=O)Nc1cc(C(F)(F)F)cn(C)c1=O)[C@H]1CCN(c2cnc3[nH]ncc3c2)CC1(C)C` (single isomer, unassigned) [Example I-45-a] belongs less than 10 nM; to `CN(C(=O)Nc1cc(C(F)(F)F)cn(C)c1=O)[C@H]1CC=C(c2cnc3[nH]ncc3n2)CC1` (single isomer, unassigned) [Example I-160-b, (S)- or (R)-1-(4-(1H-pyrazolo[3,4-b]pyrain-5-yl)cyclohex-3-en-1-yl)-1-methyl-3-(2-methyl-2-oxo-5-(trifluoromethyl)-1,2-dihydropyridin-3-yl)urea], less than 10 nM; to `CN(C(=O)Nc1cc(C(F)(F)F)cn(C)c1=O)[C@@H]1CCN(c2cnc3[nH]ccc3n2)C[C@@H]1F` [Example I-64-a, 1-((3S,4R)-3-fluoro-1-(5H-pyrrolo[2,3-b]pyrazin-2-yl)piperidin-4-yl)-1-methyl-3-(1-methyl-2-oxo-5-(trifluoromethyl)-1,2-dihydropyridin-3-yl)urea], less than 10 nM. Turning to `CNc1n[nH]c2ncc(N3CC[C@H](N(C)C(=O)Nc4cc(C(F)(F)F)cn(C)c4=O)C(F)(F)C3)cc12` [Example I-125-b, (S)-1-(3,3-difluoro-1-(3-(methylamino)-1H-pyrazolo[3,4-b]pyridin-5-yl)piperidin-4-yl)-1-methyl-3-(1-methyl-2-oxo-5-(trifluoromethyl)-1,2-dihydropyridin-3-yl)urea], the Kd was less than 10 nM. Regarding `CN(C(=O)Nc1cc(C(F)(F)F)cn(C)c1=O)[C@@H]1CCN(c2cnc3[nH]ccc3n2)C[C@H]1F` (single isomer, unassigned) [Example I-63-a], the Kd is less than 10 nM. To `CCN1CCN(Cc2ccc(NC(=O)N(C)C3CCN(c4cnc5[nH]nc(OC)c5c4)CC3)cc2C(F)(F)F)CC1` [Example I-182, 3-(4-((4-ethylpiperazin-1-yl)methyl)-3-(trifluoromethyl)phenyl)-1-(1-(3-methoxy-1H-pyrazolo[3,4-b]pyridin-5-yl)piperidin-4-yl)-1-methylurea] belongs less than 10 nM.
